Measured values as given in patent US10688099B2, “Methods for modulating the amount of RNA transcripts” (PTC Therapeutics, Inc., priority 2013, dated 2020).

Tested on: RNA isoforms in PNN 1-46 SMA type I patient-derived fibroblasts
Assay: RNA Abundance Modulation (RNA isoform abundance, iFPM, HiSeq RNA sequencing)
Assay type: cell-based, human
Settings: 3 μM
Method: Cells from a cell line of interest are cultured in conditions sufficient to yield the number of cells capable of generating enough RNA for subsequent sequencing steps. Cells from the tested cell line are contacted with a compound described herein.
To culture said cells, they are seeded, at appropriate concentrations in a volume of media in a cell culture container and incubated for 4, 5, 6, 7, 8, 9, 10, or more hours. A concentrated solution of compound in a vehicle (e.g., DMSO) is then added in sufficient volume to result in the intended final concentration of the compound, for example 100 nM, 500 nM, 1 μM, 5 μM, 10 μM, 15 μM, 20 μM, or more. The cells may also be treated with vehicle alone, as a control. A number of replicates of each concentration or control may be made (e.g., 2 replicates). The cells are then incubated at a constant temperature appropriate for cell culture of the particular cell line (e.g., 37° C.) for 6, 12, 18, 24, 48, or more hours. After incubation, the growth medium is removed and the cells are washed with the appropriate buffer (e.g., PBS). Cells are then removed from adherence to the cell culture container by treatment with a solution containing trypsin, and the trypsin subsequently quenched with the appropriate volume of buffer (e.g., DMEM-FBS). The cells are then pelleted with gentle centrifugation (e.g., ≤90×g centrifugal force) and resuspended in a buffer to lyse the cells for extraction of RNA. The cell lysates may then be frozen (e.g., at −80° C.) or, alternately, may immediately be used in a procedure to purify the RNA (e.g. by use of the RNEASY PLUS® minikit). The RNA from cell lysates is eluted in the appropriate volume of buffer (e.g., RNEASE-FREE H2O®). The resulting purified RNA may then be sequenced (e.g., using RNASeq) or analyzed using a human exon array (e.g., by GENECHIP® human exon array) to determine changes in the RNA levels in those cells treated with compound compared to those cells treated only with DMSO. The purified RNA may also be quantified by other methods known in the art.
Using the RNA data obtained from sequencing, exon array, or other methods, a statistical analysis can reveal changes in the RNA levels of compound-treated compared with control. For example, t-test p-values may be calculated for the data obtained through sequencing and exon array methods in order to compare compound-treated cells to those treated with the DMSO control. […] Analysis of the sequencing and exon array data may then also yield predictions about the cause of the aberrant amount of an RNA transcript in the cells (e.g., perturbation of RNA splicing, RNA transcription, or RNA stability). These predictions may be further confirmed by methods known in the art. For example, RT-PCR and RT-qPCR may be used to confirm the change in amount of RNA transcripts for one or more particular transcripts of interest.
Following the methods described above in Example 1, PNN 1-46 SMA type I patient-derived fibroblasts were treated with 300 nM or 3 μM Compounds 774 and 808 in 0.5% DMSO.
700,000 cells were seeded in 10 mL of medium (DMEM plus 10% FBS) in a T-75 flask. Cells were allowed to attach for at least 4 hrs, after which 50 μL of a 200× compound solution (100% DMSO) was added to each well, and the plate was incubated at 37° C. for 24 hrs.
At the end of the incubation period, the supernatant was removed and the cells where washed with PBS. TrypLE (Invitrogen) express solution was added (e.g. 1.5 mL per one T75 flask). The flasks were incubated for 3 to 5 min at 37° C. The trypsin was then quenched, e.g., by adding 10 mL DMEM-FBS.
Next, the cells were pelleted using gentle centrifugation without exceeding 90×g centrifugal force. The supernatant was removed and the cell pellet was re-suspended in 600 μL RLT buffer (the RLT buffer was supplemented with beta-mercaptoethanol according to the RNeasy protocol manual) by pipetting up and down until the pellet was completely dissolved […]

Compound: CCc1nc(C)cn2nc(-c3cc(=O)n4cc(C5CCN(C)CC5)cc(C)c4n3)cc12 [Compound 774]
- amp FC (x + 1) (TGFBRAP1 NM_004257): 156.98
- ave Cpd (TGFBRAP1 NM_004257): 0 iFPM
- FC (x + 1) (TGFBRAP1 NM_001142621): 1.6224
- L2FC (x + 1) (TGFBRAP1 NM_001142621): 0.698
- L2abs (Cpd-DMSO) (TGFBRAP1 NM_001142621): 7.42
- abs (Cpd-DMSO) (TGFBRAP1 NM_001142621): 172 iFPM
- amp FC (x + 1) (TGFBRAP1 NM_001142621): 1.62
- ave Cpd (TGFBRAP1 NM_001142621): 446 iFPM
- FC (x + 1) (THADA AK025445): 0.2651
- L2FC (x + 1) (THADA AK025445): −1.915
- L2abs (Cpd-DMSO) (THADA AK025445): 5.17
- abs (Cpd-DMSO) (THADA AK025445): 36 iFPM
- amp FC (x + 1) (THADA AK025445): 3.77
- ave Cpd (THADA AK025445): 12 iFPM
- FC (x + 1) (THADA AK126824): 0.1808
- L2FC (x + 1) (THADA AK126824): −2.468
- L2abs (Cpd-DMSO) (THADA AK126824): 2.55
- abs (Cpd-DMSO) (THADA AK126824): 6 iFPM
- amp FC (x + 1) (THADA AK126824): 5.53
- ave Cpd (THADA AK126824): 0 iFPM
- FC (x + 1) (THADA AK307915): 0.2071
- L2FC (x + 1) (THADA AK307915): −2.272
- L2abs (Cpd-DMSO) (THADA AK307915): 3.71
- abs (Cpd-DMSO) (THADA AK307915): 13 iFPM
- amp FC (x + 1) (THADA AK307915): 4.83
- ave Cpd (THADA AK307915): 2 iFPM
- FC (x + 1) (THADA AL832141): 1.7328
- L2FC (x + 1) (THADA AL832141): 0.793
- L2abs (Cpd-DMSO) (THADA AL832141): 0.72
- abs (Cpd-DMSO) (THADA AL832141): 2 iFPM
- amp FC (x + 1) (THADA AL832141): 1.73
- ave Cpd (THADA AL832141): 3 iFPM
- FC (x + 1) (THADA AY149632): 1.0000
- L2FC (x + 1) (THADA AY149632): 0.000
- L2abs (Cpd-DMSO) (THADA AY149632): 0
- abs (Cpd-DMSO) (THADA AY149632): 0 iFPM
- amp FC (x + 1) (THADA AY149632): 1.00
- ave Cpd (THADA AY149632): 0 iFPM
- FC (x + 1) (THADA BX641038): 0.6958
- L2FC (x + 1) (THADA BX641038): −0.523
- L2abs (Cpd-DMSO) (THADA BX641038): 0.60
- abs (Cpd-DMSO) (THADA BX641038): 2 iFPM
- amp FC (x + 1) (THADA BX641038): 1.44
- ave Cpd (THADA BX641038): 2 iFPM
- FC (x + 1) (THADA NM_022065): 0.3170
- L2FC (x + 1) (THADA NM_022065): −1.658
- L2abs (Cpd-DMSO) (THADA NM_022065): 9.36
- abs (Cpd-DMSO) (THADA NM_022065): 657 iFPM
- amp FC (x + 1) (THADA NM_022065): 3.15
- ave Cpd (THADA NM_022065): 304 iFPM
- FC (x + 1) (THADA NM_001083953): 0.0135
- L2FC (x + 1) (THADA NM_001083953): −6.211
- L2abs (Cpd-DMSO) (THADA NM_001083953): 6.19
- abs (Cpd-DMSO) (THADA NM_001083953): 73 iFPM
- amp FC (x + 1) (THADA NM_001083953): 74.06
- ave Cpd (THADA NM_001083953): 0 iFPM
- FC (x + 1) (THADA NM_001271643): 1.1557
- L2FC (x + 1) (THADA NM_001271643): 0.209
- L2abs (Cpd-DMSO) (THADA NM_001271643): 2.41
- abs (Cpd-DMSO) (THADA NM_001271643): 5 iFPM
- amp FC (x + 1) (THADA NM_001271643): 1.16
- ave Cpd (THADA NM_001271643): 38 iFPM
- FC (x + 1) (THADA NM_001271644): 4.4176
- L2FC (x + 1) (THADA NM_001271644): 2.143
- L2abs (Cpd-DMSO) (THADA NM_001271644): 3.80
- abs (Cpd-DMSO) (THADA NM_001271644): 14 iFPM
- amp FC (x + 1) (THADA NM_001271644): 4.42
- ave Cpd (THADA NM_001271644): 17 iFPM
- FC (x + 1) (THADA NR_073394): 0.6844
- L2FC (x + 1) (THADA NR_073394): −0.547
- L2abs (Cpd-DMSO) (THADA NR_073394): −0.13
- abs (Cpd-DMSO) (THADA NR_073394): 1 iFPM
- amp FC (x + 1) (THADA NR_073394): 1.46
- ave Cpd (THADA NR_073394): 1 iFPM
- FC (x + 1) (TIMP2 AK294290): 0.0109
